Data reported in patent US10759749B2, “Therapeutic agent for diabetes” (JCR Pharmaceuticals Co., Ltd., priority 2016, dated 2020).
Where two headings read alike, the source gives them in different places.

Legend:
MIN6-K8 cells [1] = experiment: Insulin secretion stimulation test using MIN6-K8 cells; assay type: cell-based; settings: for insulin secretion from MIN6-K8 cells (relative to control): 1 μM to 100 μM test compound, 11.2 mM glucose, 30 minutes; for amount of insulin secretion from MIN6-K8 cells at 100 μM compared with 30 μM: concentration of 100 μM
Procedure: MIN6-K8 cells (cells similar to the MIN6-m9 cell line deposited as FERM P-18081) were cultured in Dulbecco's modified Eagle's medium (DMEM medium) supplemented with 10% FBS, 50 μM 2-mercaptoethanol, 100 mg/L streptomycin and 60.5 mg/L penicillin sulfate at 37° C. After washing the MIN 6-K8 cells twice with medium, the cells were washed twice with 133.4 mM NaCl, 4.7 mM KCl, 1.2 mM KH2PO4, 1.2 mM MgSO4, 2.5 mM CaCl2, 5.0 mM NaHCO3, 2.8 mM glucose, 0.1% BSA and 10 mM HEPES buffer (pH 7.4) for 30 minutes. Cells were then cultured for 30 minutes in the KRBH buffer containing the test compound and 11.2 mM glucose. After incubation, the concentration of insulin contained in the KRBH buffer solution was measured using an insulin assay kit (CIS Bio International Inc.). The concentration of insulin was obtained as a relative value when the concentration of insulin when the test compound was not added was taken as 1. Here, DSC108 and C8 were used as test compounds, and the abilities to promote insulin secretion of both drugs were compared within a concentration range of 1 μM to 100 μM. Measurement was carried out with n=3.
For the 1,1-diphenyl-4-cyclohexyl-semicarbazide derivatives numbered 2 to 7 shown in Table 1, an insulin secretion stimulation test using the above MIN6-K8 cells was performed. The concentration of the test compound was 100 μM, and the amount of secretion when the amount of insulin secreted when no test compound was added was taken as 1 was measured. Incidentally, the number 1 is 1,1-diphenyl-4-cyclohexyl-semicarbazide represented by the chemical formula (18). Numbers 2 to 7 are compounds in which one of hydrogen atoms on the cyclohexyl ring of 1,1-diphenyl-4-cyclohexyl-semicarbazide is substituted with a carboxyl group.

wild type mice = experiment: Measurement of hypoglycemic action using wild type mice (glucose loading); assay type: in vivo, C57BL/6JJc1 mice; settings: oral 10 to 100 mg/kg body weight, 20 minutes before glucose loading 1.5 g/kg
Procedure: To male C57BL/6JJc1 mice (CLEA Japan Inc.) of 18 to 30 weeks old fasted for 16 hours, 10, 30 or 100 mg/kg body weight of DSC108-Na was orally administered 20 minutes before glucose loading (1.5 g glucose/kg body weight) (10 mg/kg body weight administration group, 30 mg/kg body weight administration group and 100 mg/kg body weight administration group, respectively). As a control, DSC108-Na non-administration group (vehicle administration group) was placed. Glucose concentration in the blood was measured over time over 120 minutes after the administration using Antsense III glucose analyzer (Horiba Inc.). Measurement was carried out using 4 mice in each group.

[2] = mouse, in vivo, po, 30 mg/kg
Procedure: (§1) Peripheral blood was collected over time from the tail vein after administration. The collected blood was centrifuged to obtain plasma. An extraction solution (chloroform:methanol:water=1:2:0.8) containing 20 μM methionine sulfone was added to the plasma, followed by stirring and centrifugation. After filtering the extracted solution fraction with a 5 kD filter (Millipore Inc.), the extract was lyophilized. The extract obtained by lyophilization was dissolved in pure water and subjected to mass spectrometry. Mass spectrometry was performed using a mass spectrometer (LCMS-8050, Shimazu Inc.) fitted with liquid chromatography (Nexera UHPLC, Shimazu Inc.). Separation by liquid chromatography was performed with a double gradient of 0.1% formic acid aqueous solution and 0.1% acetonitrile formic acid solution using Discovery HS F5 column (3 μm, 2.1 mm×150 mm, Shigma-Aldrich Inc.).

[3] = tested on: type 2 diabetes model rats; experiment: Measurement of hypoglycemic action using type 2 diabetes model rats (glucose loading); assay type: in vivo; settings: GK/Slc rats, oral 100 mg/kg body weight
Procedure: To male GK/Slc rats (Japan SLC Inc.) 18-30 weeks old fasted for 6 hours, DSC108-Na was orally administered at 100 mg/kg body weight 20 minutes before glucose loading (1.5 g glucose/kg body weight) (DSC108-Na administration group). As a control, DSC108-Na non-administration group (vehicle administration group) was placed. The glucose concentration in the blood was measured using Antsense III glucose analyzer (Horiba Inc.). In addition, blood insulin concentration was measured by an ELISA method using an insulin measurement kit (Morinaga Inc.). Not limited to this examination, all animal tests were conducted in accordance with the provisions of the Kobe University Animal Experiment Implementation Rules with the approval of the Animal Experimental Ethics Committee of Kobe University.

pancreatic β cells = experiment: Electrophysiological test using pancreatic β cells (membrane potential, perforated patch clamp); assay type: cell-based, C57BL/6 mice; settings: in the presence of 30 μM compound; −69±2 mV in its absence
Procedure: Islets were isolated from C57BL/6 mice by collagenase digestion method in accordance with the method described “in Shibasaki T. Proc Natl Acad Sci USA. 104, 19333-8 (2007)”. The pancreatic islet cells were dispersed and cultured in DMEM supplemented with 10% FBS, and then plated on a 3.5 cm dish sheeted prior to the experiment with a glass flake coated with collagen.
Membrane potential of pancreatic β cells was measured by a perforated patch clamp method (Gonoi T J J. Biol. Chem., 269: 16989-92 (1994)) in current clamp mode. As an extracellular solution, 5 mM HEPES buffer-NaOH (pH 7.4) containing 143 mM NaCl, 5.4 mM KCl, 1.8 mM CaCl2, 0.5 mM MgCl2, 0.33 mM NaHPO4 and 5.5 mM glucose was used. As a pipette solution, 11 mM HEPES-KOH buffer (pH 7.4) containing 107 mM KCl, 11 mM EGTA, 2 mM MgSO4, 1 mM CaCl2 and […] ATP-K2 was used. Under this condition, outward current induced by 30 μM DSC108 was measured by a pierced patch clamp assay.

human SUR1 (hSUR1) = target: T1, human SUR1 (hSUR1) (Homo sapiens, UniProt Q09428); experiment: [^3H] glibenclamide competition test; assay type: binding; settings: 10 nM [^3H] glibenclamide, 30 minutes
T1 construct: expressed in transfected cells
T1 sequence (Q09428 whole entry): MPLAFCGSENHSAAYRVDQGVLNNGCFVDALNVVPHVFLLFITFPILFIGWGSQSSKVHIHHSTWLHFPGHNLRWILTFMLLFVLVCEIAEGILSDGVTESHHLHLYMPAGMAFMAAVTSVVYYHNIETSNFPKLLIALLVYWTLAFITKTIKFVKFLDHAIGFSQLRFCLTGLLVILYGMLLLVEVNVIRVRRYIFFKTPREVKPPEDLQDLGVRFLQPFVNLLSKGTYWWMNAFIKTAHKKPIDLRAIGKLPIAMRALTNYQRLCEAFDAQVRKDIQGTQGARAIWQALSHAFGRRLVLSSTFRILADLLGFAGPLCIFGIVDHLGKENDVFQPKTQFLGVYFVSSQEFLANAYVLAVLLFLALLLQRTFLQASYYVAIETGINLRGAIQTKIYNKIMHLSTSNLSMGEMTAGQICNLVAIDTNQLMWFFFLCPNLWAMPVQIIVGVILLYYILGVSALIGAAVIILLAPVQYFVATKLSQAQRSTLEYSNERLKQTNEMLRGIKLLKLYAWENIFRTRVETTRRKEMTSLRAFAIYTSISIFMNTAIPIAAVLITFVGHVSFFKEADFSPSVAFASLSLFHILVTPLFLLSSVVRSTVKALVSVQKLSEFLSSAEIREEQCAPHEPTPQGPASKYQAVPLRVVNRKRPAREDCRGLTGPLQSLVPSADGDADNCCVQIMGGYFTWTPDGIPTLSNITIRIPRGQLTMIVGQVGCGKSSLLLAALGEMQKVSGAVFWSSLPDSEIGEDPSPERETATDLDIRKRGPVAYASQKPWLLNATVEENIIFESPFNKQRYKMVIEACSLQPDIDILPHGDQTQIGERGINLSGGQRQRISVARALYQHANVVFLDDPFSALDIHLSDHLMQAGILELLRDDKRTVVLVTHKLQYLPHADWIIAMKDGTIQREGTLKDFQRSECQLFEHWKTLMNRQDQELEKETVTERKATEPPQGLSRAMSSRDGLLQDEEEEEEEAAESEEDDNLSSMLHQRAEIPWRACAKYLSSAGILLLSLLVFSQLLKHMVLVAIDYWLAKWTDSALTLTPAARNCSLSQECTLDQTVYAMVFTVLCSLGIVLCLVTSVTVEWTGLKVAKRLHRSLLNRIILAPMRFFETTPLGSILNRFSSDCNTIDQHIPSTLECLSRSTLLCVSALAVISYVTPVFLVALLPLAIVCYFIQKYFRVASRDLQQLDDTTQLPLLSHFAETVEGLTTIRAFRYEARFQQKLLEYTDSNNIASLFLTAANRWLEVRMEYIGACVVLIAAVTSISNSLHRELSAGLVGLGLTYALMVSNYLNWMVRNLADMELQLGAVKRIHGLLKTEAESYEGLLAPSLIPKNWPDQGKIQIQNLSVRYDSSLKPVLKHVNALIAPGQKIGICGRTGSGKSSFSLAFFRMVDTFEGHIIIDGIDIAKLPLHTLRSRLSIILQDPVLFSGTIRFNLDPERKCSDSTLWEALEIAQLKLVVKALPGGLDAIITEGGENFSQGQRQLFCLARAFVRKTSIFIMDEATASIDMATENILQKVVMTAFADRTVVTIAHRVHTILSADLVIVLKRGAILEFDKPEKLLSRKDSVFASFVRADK
Procedure: An expression vector incorporating a gene encoding human SUR1 (hSUR1) was introduced into MIN6-K8 cells by a conventional method to establish a cell line MIN6-K8, which expresses hSUR1 strongly. The MIN6-K8 cells expressing strongly hSUR1 were cultured in a buffer containing 10 nM [^3H] glibenclamide and DSC108-Na for 30 minutes. In this, the concentration of DSC108-Na in the buffer was 300 μM to 1 mM. The cells were vacuum-filtered and recovered on Whatmann GF/C filters (Whatmann International Inc.), and then the filters were washed three times with 4 mL of ice-cold buffer. After washing, radioactivities of the filters were measured with a liquid scintillation counter, and the amount of [^3H] glibenclamide bound to MIN6-K8 cells expressing strongly hSUR1 via hSUR1 was measured. Then, the value at the time of non-addition of DSC108-Na was taken as 100%, and the binding amount (%) of [^3H] glibenclamide to MIN6-K8 cells was determined as a relative value to this value.

[4] = target: T2, KATP channel (human SUR1 and human Kir6.2 reconstituted in COS-1 cells) (Homo sapiens, UniProt Q09428); experiment: Electrophysiological test using KATP channel expressing COS-1 cells; assay type: cell-based; settings: 300 μM diazoxide; read-out: IC50 of inhibition of polarization of COS-1 cell membrane via KATP channel induced by diazoxide
T2 construct: expressed in transfected cells; host or cells: COS-1 cells
T2 sequence (Q09428 whole entry): as above
T2 sequence (Q14654 whole entry partner): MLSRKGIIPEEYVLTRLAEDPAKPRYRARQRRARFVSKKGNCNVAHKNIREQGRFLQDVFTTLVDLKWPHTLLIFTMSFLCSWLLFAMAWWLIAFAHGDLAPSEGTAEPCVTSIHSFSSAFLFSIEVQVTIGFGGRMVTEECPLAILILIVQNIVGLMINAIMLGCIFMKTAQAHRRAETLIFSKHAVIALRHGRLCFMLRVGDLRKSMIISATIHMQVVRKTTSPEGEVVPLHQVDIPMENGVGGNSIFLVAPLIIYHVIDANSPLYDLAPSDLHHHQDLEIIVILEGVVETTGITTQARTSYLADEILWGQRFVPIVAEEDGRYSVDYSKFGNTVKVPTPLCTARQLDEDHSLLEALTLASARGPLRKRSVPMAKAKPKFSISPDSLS
Procedure: Expression vectors incorporating the gene encoding human SUR1 (hSUR1) and expression vector incorporating the gene encoding human Kir6.2 (hKir6.2) were introduced into COS-1 cells together, and the KATP channel was reconstituted with COS-1 cells (Inagaki N. Science. 270, 1166-70 (1995)). The cells were cultured in DMEM medium (Sigma-Aldrich Inc.) supplemented with 10% FBS and plated on a 3.5 cm dish on which glass flakes coated with collagen had been spread prior to the experiment, and incubated at 37° C. for 24 to 72 hours.
The membrane potential of COS-1 cells reconstituted with KATP channels was determined by the method described in (Gonoi TJ Biol. Chem., 269: 16989-92 (1994)), in the current clamp mode with perforated patch clamp method. […] Inhibitory effect of DSC108 on the polarization of COS-1 cell membrane via KATP channel induced by 300 μM diazoxide (Sigma Chemical Inc.) under these conditions was measured.
At this time, outward current induced by 300 μM diazoxide (Sigma Chemical Inc.) was measured by […] patch clamp assay, and this value was set to 0 mV. The value of outward current when DSC108, glibenclamide or glicrazaide (Sigma Chemical Inc.) was added together with diazoxide was determined to determine the inhibitory effect (IC50) of these agents on the polarization of the cell membrane induced by diazoxide.

MIN6-K8 cells [5] = experiment: Measurement of intracellular calcium ion concentration (Fura-2-AM); assay type: cell-based; settings: 3 μM to 30 μM, 2.8 mM glucose
Procedure: In accordance with the method described in “Shimaoto K. Mol Pharmacol. 53, 195-201 (1998)”, measurement of intracellular calcium concentration was performed using fura-2-acetoxymethyl ester (Fura-2-AM, Dojindo Inc.) which is a calcium ion sensitive fluorescent reagent. MIN6-K8 cells were grown in Dulbecco's modified Eagle medium (DMEM medium) supplemented with 10% FBS, 50 μM 2-mercaptoethanol, 100 mg/L streptomycin and 60.5 mg/L penicillin sulfate in a humidified condition of 5% CO2, at 37° C.
MIN6-K8 cells were then left alone in KRBH buffer containing 5 μM Fura-2-AM and 2.8 mM glucose at 37° C. for 20 minutes. Then, KRBH buffer containing 3 μM, 10 μM or 30 μM of DSC108 was each added as a test compound and fluorescence intensity at 340 nm and 380 nm were measured using a dual wavelength fluorometer (Fluoroskan Ascent CF, Labsystem Inc.) over time for 20 minutes and the values of “fluorescence intensity at 340 nm/fluorescence intensity at 380 nm” were determined. […] Measurement was carried out with n=4.

mouse pancreases = experiment: Insulin secretion stimulation test using mice (pancreas perfusion); assay type: in vivo; settings: 10 μM, 2.8 mM glucose, perfused mouse pancreas
Procedure: Insulin secretion stimulation test using mouse was performed in accordance with the method described in Bonnevie-Nielsen V. Diabetes. 30. 424-9 (1981) and Miki T. Diabetes. 54. 1056-63 (2005). Male mice, 16 to 20 weeks old, fasted for 6 hours, were anesthetized by administering sodium pentobarbital at a dose of 80 mg/kg body weight. The anesthetized mouse pancreases were perfused with KRBH buffer containing 4.6% dextran and 0.25% BSA aerated at 95% O2/5% CO2.
Subsequently, mouse pancreases were perfused with KRBH buffer containing 2.8 mM glucose and 10 μM DSC 108, and the perfused solution was collected every minute, and the concentration of insulin contained in the perfusion solution was measured with an insulin assay kit (CIS Bio international Inc.) over time. IN parallel, as a control, mouse pancreases were perfused with a KRBH buffer solution containing 2.8 mM glucose, and the concentration of insulin contained in the perfusion solution was measured in the same manner.

[6] = Measurement of blood concentration after oral administration
Procedure: as §1

S=C(NC1CCCCC1)NN(c1ccccc1)c1ccccc1 [C8, 1,1-diphenyl-4-cyclohexyl-thiosemicarbazide]
insulin secretion from MIN6-K8 cells (relative to control) (MIN6-K8 cells [1]): promoted insulin secretion from MIN6-K8 cells in a concentration-dependent manner
amount of insulin secretion from MIN6-K8 cells at 100 μM compared with 30 μM (MIN6-K8 cells [1]): decreased as compared with the concentration at 30 μM

O=C(O)[C@H]1CC[C@@H](NC(=S)NN(c2ccccc2)c2ccccc2)CC1 [DSC108-Na]
hypoglycemic effect (blood glucose concentration) (wild type mice): dose-dependent hypoglycemic effect
disappearance from the blood [2]: quickly disappeared from the blood
highest value in blood concentration [2]: 72.4 µM
time after administration of the highest blood concentration [2]: 30 min
duration of the effect of lowering the glucose concentration in the blood [3]: 120 min
blood levels of insulin ([3]; 20 minutes after administration): increase in blood levels of insulin was observed

O=C(O)[C@H]1CC[C@@H](NC(=S)NN(c2ccccc2)c2ccccc2)CC1 [DSC108]
membrane potential of pancreatic β cells (pancreatic β cells): −54±4 mV
binding of [^3H] glibenclamide to hSUR1-strongly expressed MIN6-K8 cells (human SUR1 (hSUR1)): inhibited the binding of [^3H] glibenclamide to hSUR1-strongly expressed MIN6-K8 cells in a concentration-dependent manner
IC50 [4]: 2300 nM
intracellular calcium ion concentration (fluorescence 340 nm/380 nm) (MIN6-K8 cells [5]): increased intracellular calcium ion concentration in a concentration-dependent manner
time after initiation of perfusion at which insulin concentration in the perfusion liquid increased (mouse pancreases): 5 min
time after start of perfusion at which insulin concentration returned to baseline (mouse pancreases): 9 min
insulin secretion promoting ability compared between the two test compounds (MIN6-K8 cells [1]; 1 μM to 100 μM): higher insulin secretion promoting ability as compared with C8
insulin secretion from MIN6-K8 cells (relative to control) (MIN6-K8 cells [1]): promoted insulin secretion from MIN6-K8 cells in a concentration-dependent manner
amount of insulin secretion from MIN6-K8 cells at 100 μM compared with 30 μM (MIN6-K8 cells [1]): decreased as compared with the concentration at 30 μM

Cc1ccc(S(=O)(=O)NC(=O)NN2CC3CCCC3C2)cc1 (centres unmarked) [Glyclazide, gliclazide]
concentration at 120 min ([6]; male, C57BL/6JJc1, mouse, plasma, po, 30 mg/kg): 75 µM
time after administration of the highest blood concentration ([6]; mice, oral, 30 mg/kg body weight): 60 min
highest value in blood concentration ([6]; mice, oral, 30 mg/kg body weight, plasma): approximately 100 μM
